Consider one compound from article PMC9332833 (Cancers, 2022).

Entries after “also recorded” stand apart in the source; their conditions may differ.

The subject of data set [1] is K562 cells. Put plainly: Annexin V-FITC/PI apoptosis measurement, K562. As to conditions: 5 µM, 24 h. Type of data set: cell-based, human. How it is done: Cells were seeded in 6-well plates (K562 or K562-MDR1) or in 24-well plates (CD34^+ cells). After 24 h, BK124.1 or DMSO was added. After a further 24 h, cells were stained using the Annexin V-FITC kit for the detection of apoptosis (BD, Franklin Lakes, NJ, USA) and immediately analyzed on a BD FACSCalibur using CellQuest software (BD, Franklin Lakes, NJ, USA). […]
(§1) incubated overnight at 37 °C and analyzed using an iMark Microp late absorbance reader (Bio-Rad, Hercules, CA, USA). Results were calculated relative to control cells treated with DMSO only.
[…] CD34+ cells were plated at a concentration of 2.5 × 10^5 cells/mL in a 24-well plate. […] A f t e r a further 24 hours, cells were harvested and stained according to the manufacturer's protocol using the Annexin V-FITC kit for the detection of apoptosis (BD, Franklin Lakes, NJ, USA). Stained cells were immediately analyzed on a BD FACSCalibur using CellQuest softwa re (BD, Franklin Lakes, NJ, USA).
Cells were seeded at a concentration of 1-2 × 10^5 cells/mL in a 6-well plate. After 24 hours of pre-incubation, BK124.1 in DMSO was added to the cells (vDMSO/vmedium), and incubated for 24 or 48 hours.
After incubation, cells were washed twice with ice-cold PBS (Mg2+ and Ca2+-free), resuspended in ice-cold 70% ethanol, and placed at -20 °C for 24 hours. […]
Flow cytometry analysis of CD243 (P-glycoprotein) […]

Data set [2] deals with K562 cells. The data set can be described thus: K562 in BK124.1 long term experiment (6 months), MDR1 induction. It counts as cell-based, human. To be noted: 1 µM or 2 µM for at least 6 months.
For data set [3], the system named is CD34+ cells from CML patients. The data set can be described thus: Annexin V apoptosis assay, CML CD34+ cells. It counts as cell-based. As to conditions: Homo sapiens, 24 h. Here is the method:
Blood samples were taken (venipuncture, EDTA-K2 Vacutainer tubes, Becton Dickinson, Franklin Lakes, NJ, USA) from 8 chronic phase CML patients (CML1–CML8; 4 men and 4 women, aged 39–79) diagnosed at the Department of Hematology, University Clinical Center, Medical University of Warsaw, following their written consent. The diagnosis was carried out by qualified clinical staff based on an interview, blood parameters and molecular tests detecting BCR-ABL1 (transcript b3a2). Peripheral blood mononuclear cells were immediately isolated from the fresh blood sample using standard protocol (Supplementary Methods). […]
Cells were seeded in 6-well plates (K562 or K562-MDR1) or in 24-well plates (CD34^+ cells). […] After a further 24 h, cells were stained using the Annexin V-FITC kit for the detection of apoptosis (BD, Franklin Lakes, NJ, USA) and immediately analyzed on a BD FACSCalibur using CellQuest software (BD, Franklin Lakes, NJ, USA). […]
as §1
[…] Stained cells were immediately analyzed on a BD FACSCalibur using CellQuest softwa re (BD, Franklin Lakes, NJ, USA). […]

A short description of data set [4]: Solubility in selected solvents. It counts as physicochemical. The source says: Supplementary Information
Table S1. Solubility of BK124.1 in selected solvents. In bold are marked solvents in which BK124.1 is soluble and stable, adequate for the administration in vivo.
Solvent Formulation Comments
Water 0.9% NaCl insoluble
10% ethanol in 0.9% NaCl insoluble
Cyclodextrin ɑ-cyclodextrin in water insoluble
β-cyclodextrin in water insoluble
γ-cyclodextrin in water insoluble […]
DMSO < 100% in water insoluble
Surfactant 20% Solutol HS 15 in 0.9% NaCl insoluble
20% Solutol HS 15 in PBS insoluble
20% Solutol HS 15, 10% ethanol in water 0.9% NaCl soluble/stable
10% Solutol HS 15, 10% ethanol in water 0.9% NaCl soluble/stable

The test system of the next data set is K562-MDR1 cells. Put plainly: P-glycoprotein (CD243)/propidium iodide flow cytometry. It counts as cell-based, human. Here is the method: BK124.1 or DMSO were added to cells and after 24 h incubation cells were harvested and stained with FITC Mouse Anti-Human P-glycoprotein (CD243) clone 17F9 (BD, Franklin Lakes, NJ, USA) or an appropriate isotype control. Propidium iodide was added to […]. Cells were analyzed on a BD FACSCalibur flow cytometer using CellQuest software (BD, Franklin Lakes, NJ, USA). […]
Flow cytometry analysis of CD243 (P-glycoprotein)
Cells were seeded at a concentration of 1-2 × 10^5 cells/mL in a 6- or 24-well plate. After 24 hours of pre-incubation, DMSO or test compounds in DMSO were added. The cells were then incubated for 24 hours. After this time, cells were harvested, washed with 0.5% BSA in PBS (Mg2+ and Ca2+ free), and labeled for 30 minutes on ice with FITC Mouse Anti-Human P-glycoprotein (CD243) clone 17F9 (BD, Franklin Lakes, NJ, USA) or an appropriate isotype control. Following incubation with the antibody, cells were stained with propidium iodide, washed with PBS and a nalyzed on a BD FACSCalibur flow cytometer using CellQuest software (BD, Franklin Lakes, NJ, USA). […]

As for `CCC12C(=O)C(CC)(C(c3ccccc3)=C1c1ccccc1)C1C(=O)N(CC(O)CNC(C)C)C(=O)C12` (stereo not drawn) [BK124.1, 4-[2-hydroxy-3-(propan-2-ylamino)propyl]-1,7-diethyl-8,9-diphenyl-4-azatricyclo [5.2.1.02,6]dec-8-ene-3,5,10-trione], in the data set with K562 cells [1], the “Apoptosis” value was found to be 61.2%. Further, in the data set on K562 cells [2], the “Induction of MDR1 in standard K562 cells” value was “not able to induce MDR1; also recorded: unable to induce MDR1 expression”. In addition, the viability at […] in data set [3] (2.5 µM) worked out at 10%. For the same compound, the viability at 5 µM came to 5% in data set [3] (5 µM) and 53.8% in the data set with K562-MDR1 cells (Homo sapiens, 5 µM, 24 h, DMSO control 89.2%, read-out: Living cells (viability), mean value). Also, the Solubility result in data set [4] (0.9% NaCl) is on record as “insoluble”; in data set [4] (10% Solutol HS 15, 10% ethanol in water 0.9% NaCl), “soluble/stable”; in data set [4] (10% ethanol in 0.9% NaCl), “insoluble”; in data set [4] (20% Solutol HS 15, 10% ethanol in water 0.9% NaCl), “soluble/stable”; in data set [4] (20% Solutol HS 15 in 0.9% NaCl), “insoluble”; in data set [4] (20% Solutol HS 15 in PBS), “insoluble”. Moreover, the Solubility result is “soluble/stable” in data set [4] (DMSO 100%); “insoluble” in data set [4] (DMSO < 100% in water); “insoluble” in data set [4] (ɑ-cyclodextrin in water); “insoluble” in data set [4] (β-cyclodextrin in water); “insoluble” in data set [4] (γ-cyclodextrin in water). For the same compound, the “Proportion of K562-MDR1 cells, mean value” in the data set with K562-MDR1 cells (5 µM, 24 h, DMSO control 33.6%) is on record as 68.3%. In the data set with K562-MDR1 cells (conclusion from K562-MDR1 data), the MDR1 substrate result is given as “not a MDR1 substrate”.

What is called viability is a read-out of living cells in per cent, often relative to untreated cells.
